Our source for the IC50 and inhibition in vivo values is patent US7973012B2, “C-phenyl glycitol compound” (Taisho Pharmaceutical Co., Ltd, priority 2006, dated 2011).

Each structure is given as a SMILES string.

Test [1] deals with T1, human SGLT2 (Homo sapiens, UniProt P31639).
T1 construct: expressed in transfected cells; host or cells: CHO-k1
T1 sequence (P31639 1-672): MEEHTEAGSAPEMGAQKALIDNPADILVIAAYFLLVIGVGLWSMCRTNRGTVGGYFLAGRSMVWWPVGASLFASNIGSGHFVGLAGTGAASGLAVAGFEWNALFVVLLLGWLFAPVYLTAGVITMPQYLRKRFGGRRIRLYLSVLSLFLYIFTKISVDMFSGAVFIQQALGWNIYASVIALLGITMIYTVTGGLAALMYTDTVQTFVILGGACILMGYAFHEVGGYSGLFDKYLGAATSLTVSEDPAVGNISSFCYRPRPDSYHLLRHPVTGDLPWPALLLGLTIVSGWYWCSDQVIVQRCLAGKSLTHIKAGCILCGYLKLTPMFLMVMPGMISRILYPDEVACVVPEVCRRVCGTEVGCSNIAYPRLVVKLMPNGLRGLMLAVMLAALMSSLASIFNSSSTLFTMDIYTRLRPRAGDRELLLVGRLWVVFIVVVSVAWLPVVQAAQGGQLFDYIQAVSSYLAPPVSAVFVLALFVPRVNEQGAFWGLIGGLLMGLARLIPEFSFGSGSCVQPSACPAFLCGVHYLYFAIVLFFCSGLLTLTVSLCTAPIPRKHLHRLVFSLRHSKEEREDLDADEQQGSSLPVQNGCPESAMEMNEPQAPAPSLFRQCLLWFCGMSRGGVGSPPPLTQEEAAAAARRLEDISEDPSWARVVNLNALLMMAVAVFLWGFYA
The test can be described thus: Inhibition test of sodium-dependent sugar uptake in CHO-k1 cells stably expressing human SGLT2. It counts as cell-based. The conditions noted are these: CHO-k1 cells expressing human SGLT2; [14C]methyl α-D-glucopyranoside uptake, 37° C., an hour. In outline:
(§1)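 CHO-k1 cells stably expressing the human transporter were preincubated 20 min in Na-free choline buffer, then given compound in NaCl uptake buffer with 1 mM [14C]methyl α-D-glucopyranoside (pH 7.4) at 37 °C for 30 min (SGLT1) or 1 h (SGLT2). Radioactivity uptake was compared with compound-free control; IC50 came from 6 concentrations.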

Test [2] addresses T2, human SGLT1 (Homo sapiens, UniProt P13866).
T2 construct: expressed in transfected cells; host or cells: CHO-k1
T2 sequence (P13866 1-664): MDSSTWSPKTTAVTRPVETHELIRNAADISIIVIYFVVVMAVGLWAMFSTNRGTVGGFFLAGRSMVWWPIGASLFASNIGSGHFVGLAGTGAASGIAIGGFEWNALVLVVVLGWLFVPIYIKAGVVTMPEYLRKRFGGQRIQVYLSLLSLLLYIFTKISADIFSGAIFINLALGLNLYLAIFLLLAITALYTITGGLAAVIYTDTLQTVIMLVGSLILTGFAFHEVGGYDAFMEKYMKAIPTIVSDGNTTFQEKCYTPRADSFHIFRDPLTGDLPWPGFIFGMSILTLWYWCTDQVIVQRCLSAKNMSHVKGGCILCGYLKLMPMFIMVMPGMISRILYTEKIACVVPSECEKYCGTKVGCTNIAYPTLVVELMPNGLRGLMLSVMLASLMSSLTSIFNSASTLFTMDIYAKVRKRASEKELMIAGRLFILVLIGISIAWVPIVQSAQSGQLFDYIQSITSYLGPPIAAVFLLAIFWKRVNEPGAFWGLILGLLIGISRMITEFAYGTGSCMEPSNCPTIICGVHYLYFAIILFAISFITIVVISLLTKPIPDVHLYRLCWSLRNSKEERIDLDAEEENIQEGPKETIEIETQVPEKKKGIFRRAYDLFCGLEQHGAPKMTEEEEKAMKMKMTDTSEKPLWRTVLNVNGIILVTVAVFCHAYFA
Briefly: Inhibition test of sodium-dependent sugar uptake in CHO-k1 cells stably expressing human SGLT1. The conditions noted are these: CHO-k1 cells expressing human SGLT1; [14C]methyl α-D-glucopyranoside uptake, 37° C., 30 minutes. The class given is cell-based. A digest of the protocol: as §1

The test system of test [3] is Streptozotocin diabetic model rats. The test can be described thus: Oral glucose tolerance test in streptozotocin diabetic model rats. It counts as in vivo. The conditions noted are these: Rattus norvegicus; STZ diabetic SD/IGS rats; 1 mg/kg oral, glucose 2 g/kg oral 5 minutes later; decrease rate of ΔAUC 0-1 h vs control group; read-out: STZ rats-OGTT(2 g/kg) % inhibition ΔAUC0-1 h(mgh/dL) @1 mg/kg. As for the experimental part:
7-week-old SD/IGS rats (from CHARLES RIVER LABORATORIES JAPAN, INC., male) were fasted for about 16 hours. Then to these rats under etherization were administered 50 mg/kg of streptozotocin (STZ) via the tail vein to prepare diabetic model rats. Similarly, to rats under etherization were administered 1 mL/kg physiological saline containing 1.25 mmol/L of citric acid via tail veins to prepare normal control rats. One week (8 weeks old) after administration of STZ or 1.25 mmol/L citric acid physiological saline, the rats were subjected to oral glucose tolerance test.
After the rats were fasted for about 16 hours, the medicament (1 mg/kg) suspended in a 0.5% carboxymethyl cellulose (CMC) aqueous solution was orally administered to a medicament treated group, and only a 0.5% aqueous solution of CMC was orally administered to a control group. At 5 minutes after the administration, a glucose solution (2 g/kg) was orally administered to each rat, and blood was collected at 5 points in total: before the administration (0 time), after 0.25, 0.5, 1 and 2 hours after the oral administration.
The blood was collected from the orbital sinus venosus of each rat under etherization with a heparin-coated blood collection tube and centrifuged, and then blood plasma was separated. The concentration of glucose in the blood plasma was determined with Glucose CII Test Wako from Wako Pure Chemical Industries, Ltd. As for the intensity of inhibitory effect on elevation of blood glucose level, area under the blood glucose level curve (AUC) was calculated by the trapezoidal rule based on the blood glucose levels of the medicament treated group from 0 time to 1 hour time. And a basal value is subtracted from AUC to describe the intensity as area under the blood glucose level increment (ΔAUC) and describe the intensity as a decrease rate from the ΔAUC of the control group.

The IC50 is the point on the concentration scale where inhibition reaches its midpoint. A lower IC50 goes with inhibition by little substance. With `Cc1cc(O)c([C@@H]2O[C@H](CO)[C@@H](O)[C@H](O)[C@H]2O)cc1Cc1ccc(CCNC(=O)NC(CO)(CO)CO)cc1` [Compound 11, (1S)-1,5-anhydro-1-[5-[4-[2-[[[2-hydroxy-1,1-bis(hydroxymethyl)ethyl]aminocarbonyl]amino]ethyl]benzyl]-2-hydroxy-4-methylphenyl]-D-glucitol], the results for the IC50 in test [1] and in test [2] were 34 nM and 59 nM, respectively. Further, the inhibition in vivo at 1 mg/kg in test [3] was 69.3%.

On to `Cc1cc(O)c([C@@H]2O[C@H](CO)[C@@H](O)[C@H](O)[C@H]2O)cc1Cc1ccc(CCNC(=O)NC(C)(C)C(=O)N2CCN(C)CC2)cc1` [Compound 12, (1S)-1,5-anhydro-1-[5-[4-[2-[[[1-[1-(4-methylpiperazin-1-yl)carbonyl]-1-(methyl)ethyl]aminocarbonyl]amino]ethyl]benzyl]-2-hydroxy-4-methylphenyl]-D-glucitol], for which the IC50 in test [1] turned out to be 48 nM; in test [2], 113 nM. For the same molecule, the inhibition in vivo at 1 mg/kg in test [3] was determined as 48.8%.
